{"source": "patent US7722863B2", "about": "“Use of granzyme b as an hsp70/hsp70 peptide dependent inducer of apoptosis in tumor cells” (Multimmune GmbH, priority 2002, dated 2010)", "type_in_all_cases": "cell-based, human", "key": {"[1]": {"test_system": "Hsp70 membrane-negative CX− cells", "assay": "Annexin V-FITC apoptosis assay (flow cytometry)", "details": "for apoptosis in CX− cells: camptothecin 4 μg/ml or granzyme B 6 ng/ml", "experimental": "(§1) Exponentially growing tumor cells (day 1 after cell passage) were used for granzyme B, camptothecin treatment and as targets in cytotoxicity assays.\n(§2) Stock solutions of camptothecin (4 mg/ml, Sigma, Munich, Germany) were diluted in DMSO and stored at 4° C. in the dark. Granzyme B (6 ng/ml, Hölzel Diagnostics, Cologne, Germany) solutions were freshly prepared directly before usage. Exponentially growing cells (0.5-1.5×10^6/ml) were incubated either with camptothecin at a final concentration of 4 μg/ml or with purified, enzymatically active granzyme B (10 ng/ml, 1 μg/ml, 2 μg/ml; 4 μg/ml) (Shi et. al. (2000) Methods in Enzymology 322, 125) for 10 min, and 30 min either at 4° C. or at 37° C. After washing in RPMI-1640 medium binding and uptake was determined in nonpermeabilized and permeabilized tumor cells by flow cytometry and fluorescence microscopy on a Axioscop 25 scanning microscope (Zeiss, Jena, Germany) equipped with a 40× objective and standard filters. Images were treated by multiplicative shading correction using the software Axiovison (Zeiss Vison, Jena, Germany). Granzyme B was visualized in red by using the HC2-PE antibody.\n(§3) Apoptotic Cell Death was Determined after Incubation of Tumor Cells with 6 ng/ml Granzyme B for 4 h, 12 h, and 24 h at 37° C. and Washing in RPMI-1640 Medium by Different Apoptosis Assays, as Described Below. Apoptosis Assays\n(§4) Annexin V-FITC staining: Briefly, cells were washed twice in Hepes buffer containing 5 mM CaCl2 and incubated with Annexin V-FITC (Roche) for 10 min at room temperature. Annexin V-FITC positively stained cells were measured on a FACSCalibur flow cytometer (Becton Dickinson, Heidelberg, Germany).\n(§5) The preceding findings posed the question whether purified granzyme B can induce apoptosis of tumor cells that present Hsp70 on their cell surface. […] As a positive control for apoptosis all cell types were incubated with the topoisomerase inhibitor camptothecin at a concentration of 4 μg/ml. Apoptosis was determined by Annexin V-FITC staining measured by FACS (FACSCalibur, Becton Dickinson, Heidelberg, Germany), DAPI staining and mitochondrial cytochrome c release. Apoptosis was not detected in CX+ and CX− cells incubated with camptothecin (cam) or granzyme B (grB) for 4 h incubation (FIG. 3A). […] It appeared that the colon carcinoma sublines CX+/CX− are better protected towards a camptothecin-mediated cell death as compared to the pancreas carcinoma sublines Colo+/Colo−."}, "[2]": {"test_system": "Hsp70 membrane-negative Colo− cells", "assay": "Annexin V-FITC apoptosis assay (flow cytometry)", "details": "12 h and 24 h; camptothecin 4 μg/ml or granzyme B 6 ng/ml", "experimental": "as §1, §2, §3, §4, §5"}, "[3]": {"test_system": "Hsp70 membrane-positive CX+ cells", "assay": "Annexin V-FITC apoptosis assay (flow cytometry)", "details": "for apoptosis in CX+ cells / amount of Annexin V-FITC positively stained CX+ cells / fold increase of Annexin V-FITC positively stained CX+ cells: camptothecin 4 μg/ml or granzyme B 6 ng/ml; for fold increase of Annexin V-FITC positively stained CX+ cells: versus untreated", "experimental": "as §1, §2, §3, §4, §5"}, "[4]": {"test_system": "Hsp70 membrane-positive Colo+ cells", "assay": "Annexin V-FITC apoptosis assay (flow cytometry)", "details": "granzyme B 6 ng/ml", "experimental": "as §1, §2, §3, §4, §5"}, "CX+ tumor cells": {"test_system": "CX+ tumor cells", "assay": "Cytochrome c release, quantitative immunoassay", "details": "camptothecin 4 μg/ml or granzyme B 6 ng/ml, 24 h", "experimental": "(§6) Cytochrome c release: Cytochrome c release was determined using a quantitative immunoassay; (DCDCO, R&D Systems, Wiesbaden, Germany). Briefly, either untreated, camptothecin (4 μg/ml) or granzyme B (6 ng/ml) treated CX+ and CX− cells (1.5×10^6/ml) were washed in PBS and treated with lysis buffer for 1 h at room temperature. Following centrifugation at 1,000 g for 15 min supernatants were removed and 200 μl of a 1:100, 1:250, and a 1:500 dilution was used for a sandwich ELISA. Following incubation with substrate solution in the dark for 30 min the reaction was stopped. The optical density of each well was determined on an ELISA reader at 450 nm. The amount of cytochrome c was determined according to a calibration curve.\n(§7) As an additional test for apoptotic cell death, cytochrome c release was measured following incubation of CX+ and CX− cells with granzyme B for 24 h. As summarized in Table I, following incubation with granzyme B (6 ng/ml) for 24 h, cytochrome c concentration was elevated from 0.382 mg/ml to 0.690 mg/ml (1.8-fold) in CX+ cells. […] It was propose that the trigger of apoptosis by granzyme B is mediated via the extracellular exposed Hsp70 epitope TKD."}, "CX− tumor cells": {"test_system": "CX− tumor cells", "assay": "Cytochrome c release, quantitative immunoassay", "details": "camptothecin 4 μg/ml or granzyme B 6 ng/ml, 24 h", "experimental": "as §6, §7"}}, "note": "Values joined by “and” are separate entries in the source; they are usually repeats but may differ in a detail not shown here. Equal entries are not always repeated."}
{"substance": "granzyme B", "values": [{"measurement": "apoptosis in CX− cells", "setting": "[1]; 4 h incubation", "value": "not detected"}, {"measurement": "apoptosis in CX− cells", "setting": "[1]; 12 h and 24 h", "value": "neither a 12 h nor a 24 h treatment with granzyme B induces apoptosis"}, {"measurement": "amount of apoptotic CX− cells before and after treatment", "setting": "[1]; 24 h granzyme B, FIG. 3B", "value": "remained unaltered"}, {"measurement": "apoptosis in Colo− cells", "setting": "[2]", "value": "neither a 12 h nor a 24 h treatment with granzyme B induces apoptosis"}, {"measurement": "apoptosis in CX+ cells", "setting": "[3]; 4 h incubation", "value": "not detected"}, {"measurement": "amount of Annexin V-FITC positively stained CX+ cells", "setting": "[3]; 12 h, untreated 16.6%", "value": 20.9, "unit": "%"}, {"measurement": "fold increase of Annexin V-FITC positively stained CX+ cells", "setting": "[3]; 12 h", "value": 1.3, "unit": "fold"}, {"measurement": "apoptosis in CX+ cells", "setting": "[3]; 12 h and 24 h", "value": "apoptosis was observed"}, {"measurement": "amount of Annexin V-FITC positively stained CX+ cells", "setting": "[3]; 24 h, untreated 18%", "value": 30.2, "unit": "%"}, {"measurement": "fold increase of Annexin V-FITC positively stained CX+ cells", "setting": "[3]; 24 h", "value": 1.8, "unit": "fold"}, {"measurement": "fold increase of Annexin V-FITC positively and PI negatively stained CX+ cells", "setting": "[3]; 24 h granzyme B, representative analysis FIG. 3B", "value": 1.7, "unit": "fold"}, {"measurement": "amount of Annexin V-FITC positively and propidium iodide (PI) negatively stained CX+ cells", "setting": "[3]; 24 h granzyme B, representative analysis FIG. 3B, untreated control 18%", "value": 30, "unit": "%"}, {"measurement": "fold increase in the amount of Annexin V-FITC positively stained Colo+ cells", "setting": "[4]; 12 h", "value": 1.3, "unit": "fold"}, {"measurement": "fold increase in the amount of Annexin V-FITC positively stained Colo+ cells", "setting": "[4]; 24 h", "value": 2.4, "unit": "fold"}, {"measurement": "cytochrome c fold increase", "setting": "CX+ tumor cells; control 1.0", "value": 1.8, "unit": "fold"}, {"measurement": "cytochrome c", "setting": "CX+ tumor cells; mean of 4 experiments ± S.E., control 0.382 ± 0.02", "value": "0.690 mg/mL and 0.690 ± 0.08 mg/mL"}, {"measurement": "cytochrome c fold increase", "setting": "CX− tumor cells; control 1.0", "value": 0.9, "unit": "fold"}, {"measurement": "cytochrome c", "setting": "CX− tumor cells; mean of 4 experiments ± S.E., control 0.452 ± 0.02", "value": "0.425 mg/mL and 0.425 ± 0.075 mg/mL"}]}
